Data set [1] has as its system human foreskin fibroblasts (HF). Kind of data set: effect on cells: appearance of fixed, crystal violet-stained monolayer (HF). The format is cell-based. Also noted: key: N, no effect on the appearance of the alcohol-fixed and crystal violet-stained cell monolayer at the indicated compound concentration.; L, lightening of the intensity of staining (compared to controls) of the alcohol-fixed and crystal violet-stained cell monolayer at the indicated compound concentration but not at half that concentration. The conditions noted are these: at 75 µg/ml.

The test system of a further data set is vero cells. The experiment in a line: effect on cells: appearance of fixed, crystal violet-stained monolayer (vero). Details: key: N, no effect on the appearance of the alcohol-fixed and crystal violet-stained cell monolayer at the indicated compound concentration.; L, lightening of the intensity of staining (compared to controls) of the alcohol-fixed and crystal violet-stained cell monolayer at the indicated compound concentration but not at half that concentration. It counts as cell-based, African green monkey. Conditions: at 75 µg/ml.

Data set [2] deals with HSV1 (Patton). The experiment in a line: viral yield reduction (growth inhibition) assay, HSV. It counts as cell-based, Herpes Simplex Virus. Conditions: HSV1 (Patton); for Antiviral IC50 µg/ml HSV Vero: Table 1a, format not given. The method, then:
(§1) The compounds were tested for biological activity using viral yield reduction assays. Host cells (indicated as HF for human foreskin fibroblasts and as vero, the commonly used African green monkey cell line, in Tables 1 and 1a) were plated at 4 x 10^4 cells/well in cell growth medium with 2% fetal bovine serum or 2% calf serum in 96-well plates (0.1 ml/well) and incubated overnight. The compounds were added to individual wells to give final concentrations ranging from 50 to 0.1 µg/ml in two-fold concentration steps. After 1 hour, virus was added, and the incubation was continued for 4 days with RSV or CMV and for 2 days with HSV. At the end of the experiment, the amount of virus growth was quantitated and the yield reduction at various concentrations of compound was calculated. This allows estimation of the concentration of compound giving 50% reduction in virus growth (IC50).

The test system of a further data set is RSV (A2). The experiment in a line: viral yield reduction (growth inhibition) assay, RSV. The conditions noted are these: for Antiviral IC50 µg/ml RSV/ HF: yield reduction or plaque format not specified; for IC50 µG/mL IN GROWTH […]/ VERO: vero host cells. The format is cell-based, Respiratory Syncitial Virus. The procedure:
as §1

The subject of data set [3] is CMV (Ad169). Kind of data set: viral yield reduction (growth inhibition) assay, CMV. The format is cell-based, Cytomegalovirus. The conditions noted are these: for Antiviral IC50 µg/ml CMV /HF: Table 1a, format not given. The method, then:
as §1

Data set [4] relates to CMV (Ad169). Kind of data set: viral plaque reduction assay, CMV. The format is cell-based, Cytomegalovirus. (Plaques are areas of infected cells; plaque reduction assays count them against a control.)
The test system of a further data set is RSV A2. It counts as in vivo, cotton rats.
In data set [5] the test system is HSV1 (Patton). The experiment in a line: viral plaque reduction assay, HSV1. It counts as cell-based, Herpes Simplex Virus. Conditions: for IC50µG/mL IN PLAQUE ASSAY HSV/ VER O: HSV1 (Patton), vero host cells.
The next data set relates to RSV. Kind of data set: viral plaque reduction assay, RSV. The format is cell-based, Respiratory Syncitial Virus.
Setting [6] is: EXPT 3, i.n. 30 mg/k d1,2,3, Lavage/CPE.
Setting [7] is: EXPT 3, i.n. 30 mg/k d1,2,3, Lavage/Plaque.
[8] abbreviates: EXPT 3, i.n. 30 mg/k d1,2,3, Lung/Plaque.
Where [9] appears, read: EXPT 3, i.n. d0 15 mg/k, d1 30 mg/k, Lavage/CPE.
[10] abbreviates: EXPT 3, i.n. d0 15 mg/k, d1 30 mg/k, Lavage/Plaque.
[11] abbreviates: EXPT 3, i.n. d0 15 mg/k, d1 30 mg/k, Lung/Plaque.
Where [12] appears, read: EXPT 3, i.n. d0 15 mg/k, d1,2,3 30 mg/k, Lavage/CPE.
The mark [13] stands for this setting: EXPT 3, i.n. d0 15 mg/k, d1,2,3 30 mg/k, Lavage/Plaque.
The mark [14] stands for this setting: EXPT 3, i.n. d0 15 mg/k, d1,2,3 30 mg/k, Lung/Plaque.
Where [15] appears, read: EXPT 3, i.p. 30 mg/k d1,2,3, Lavage/CPE.
Setting [16] is: EXPT 3, i.p. 30 mg/k d1,2,3, Lavage/Plaque.
Setting [17] is: EXPT 3, i.p. 30 mg/k d1,2,3, Lung/Plaque.

Where two headings read alike, the source gives them in different places.

The text below walks through data of patent EP0795549A1, “Bis-aryloxy(amino)-triazinyl-oxy(amino)aryl derivatives, their preparation and their use as antiviral agents” (American Cyanamid Company, priority 1996, dated 1997).

In the case of “4',4-Bis-{4,6-bis-[3-(3,5-dicarbamoyl-piperidine-1-sulfonyl)-phenylamino]-[1,3,5]triazin-2-ylamino}-biphenyl-2,2'disulfonic acid, disodium salt [Example 53]”, the “Effect on cells @ µg/ml indicated HF” value in [1] is “N@75”. In the data set on vero cells, the “Effect on cells @ µg/ml indicated Vero” value is listed as “N@75”. Further, the “Antiviral IC50 µg/ml HSV Vero” value with HSV1 (Patton) [2] is above 50 µg/mL. For the same substance, the “Antiviral IC50 µg/ml RSV/ HF” value in the data set on RSV (A2) (Table 1a) worked out at 2 µg/mL. Also, the “Antiviral IC50 µg/ml RSV/ Vero” value in the data set with RSV (A2) (Table 1a, vero, format not given) came out at 7 µg/mL.

On to “4',4-Bis-{4,6-bis-[3-(bis-carbamoylmethyl-1-sulfamoyl)-phenylamino]-[1,3,5]triazin-2-ylamino}-biphenyl-2,2'-disulfonic acid, disodium salt [Example 43]”, for which the “Effect on cells @ µg/ml indicated HF” value in data set [1] is given as “N@75”. Also, the “Antiviral IC50 µg/ml CMV /HF” value with CMV (Ad169) [3] was determined as 2.5 µg/mL. The “Effect on cells @ µg/ml indicated Vero” value in the data set on vero cells is listed as “N@75”. The “Antiviral IC50 µg/ml HSV Vero” value in the data set on HSV1 (Patton) [2] was found to be 6 µg/mL. In addition, the “Antiviral IC50 µg/ml RSV/ HF” value with RSV (A2) (Table 1a) was 0.1 µg/mL.

Regarding “4,4'-Bis-[[4,6-bis-[[3-[[bis-[3-(methylamino)-3-oxopropyl]amino]sulfonyl]phenyl]amino]-1,3,5-triazin-2-yl]amino] [1,1'-biphenyl]-2,2'-disulfonic acid, disodium salt [Example 34]”, the “Effect on cells @ µg/ml indicated HF” value in data set [1] is recorded as “N@75”. In addition, the “Antiviral IC50 µg/ml CMV /HF” value in the data set with CMV (Ad169) [3] is above 50 µg/mL. Also, the “Effect on cells @ µg/ml indicated Vero” value in the data set with vero cells was “L@75”. Besides, in the data set with HSV1 (Patton) [2], the “Antiviral IC50 µg/ml HSV Vero” value is above 50 µg/mL. Further, in the data set with RSV (A2) (Table 1a), the “Antiviral IC50 µg/ml RSV/ HF” value was determined as 1.2 µg/mL.

As for “4,4'-Bis[4,6-di[3-aminophenyl-N,N-bis(2-carbamoyl-ethyl)sulfonylimino]-1,3,5-triazin-2-ylamino]-biphenyl-2,2'-disulfonic acid, disodium salt [Example 4]”, the “IC50 µG/mL IN GROWTH […]/ HF” value with CMV (Ad169) [3] (HF host cells) amounted to 35 µg/mL; in the data set with HSV1 (Patton) [2] (HF host cells) it was 20 µg/mL; with RSV (A2) (HF host cells) it was 0.1 µg/mL. Moreover, the “IC50µG/mL IN PLAQUE ASSAY CMV/ HF” value in the data set with CMV (Ad169) [4] (CMV (Ad169), HF host cells) is above 30 µg/mL. Also, the “IC50 (µG/ml) viral plaque formation” value was above 30 µg/mL in the data set with CMV (Ad169) [4] (HCMV Ad169, HF, Pre); 35 µg/mL in the data set on HSV1 (Patton) [5] (HSV1 Patton, VERO, Pre); 0.08 µg/mL in the data set with RSV (RSV 2B, VERO, Post 2 hours); 0.15 µg/mL with RSV (RSV 3A, VERO, Post 2 hours); 0.18 µg/mL in the data set on RSV (RSV 9320, VERO, Post 2 hours); 0.06 µg/mL in the data set on RSV (RSV 18736, VERO, Post 2 hours). Moreover, the “IC50 (µG/ml) viral plaque formation” value in the data set on RSV (RSV A2, VERO, Post 2 hours) turned out to be 0.28 µg/mL; in the data set on RSV (RSV A2, VERO, Pre (pretreatment)) it was 0.1 µg/mL; in the data set on RSV (RSV LONG, VERO, Post 2 hours), 0.21 µg/mL; with RSV (RSV RSS2, VERO, Post 2 hours), 0.20 µg/mL. In addition, the “Fold red. log10” value with RSV A2 (setting [6]) came to 2.51 log10; with RSV A2 (setting [7]) it was 1.2 log10; in the data set with RSV A2 (setting [8]), 1.18 log10; in the data set with RSV A2 (setting [9]) it was 2.52 log10; with RSV A2 (setting [10]), 2.03 log10; in the data set with RSV A2 (setting [11]) it was 2.23 log10. Moreover, the “Fold red. log10” value with RSV A2 (setting [12]) was determined as 2.13 log10; in the data set with RSV A2 (setting [13]), 2.04 log10; in the data set with RSV A2 (setting [14]), 2.3 log10; with RSV A2 (setting [15]), 0 log10; with RSV A2 (setting [16]), 0.09 log10; with RSV A2 (setting [17]), 0.26 log10. Besides, in the data set with RSV A2 (rat, in vivo), the “Fold red. log10” value is 1.63 log10. Further, the “Mean titer log10/g lung” value with RSV A2 (setting [6]) is 1.67 log10/g lung; in the data set with RSV A2 (setting [7]), 3.09 log10/g lung; in the data set on RSV A2 (setting [8]), 3.37 log10/g lung; in the data set with RSV A2 (setting [9]), 1.66 log10/g lung; with RSV A2 (setting [10]), 2.26 log10/g lung; in the data set with RSV A2 (setting [11]), 2.32 log10/g lung. Besides, the “Mean titer log10/g lung” value in the data set with RSV A2 (setting [12]) was 2.05 log10/g lung; with RSV A2 (setting [13]), 2.25 log10/g lung; with RSV A2 (setting [14]), 2.25 log10/g lung; with RSV A2 (setting [15]), 4.18 log10/g lung; with RSV A2 (setting [16]), 4.1 log10/g lung; with RSV A2 (setting [17]) it was 3.92 log10/g lung. The “Mean titer log10/g lung” value with RSV A2 (rat, in vivo) is 2.05 log10/g lung. In the data set on RSV A2 (cotton rats, summary of Table 3), the “inhibition of RSV in vivo (summary in words)” value is recorded as “inhibit RSV in vivo”. Moreover, the entries for the “IC50 µG/mL IN GROWTH […]/ VERO” value in the data set with HSV1 (Patton) [2] (vero host cells) and in the data set with RSV (A2) were 35 µg/mL and 0.1 µg/mL, respectively. Also, the “IC50µG/mL IN PLAQUE ASSAY HSV/ VER O” value in the data set on HSV1 (Patton) [5] came out at 35 µg/mL. Also, the “IC50µG/mL IN PLAQUE ASSAY RSV/ VERO” value with RSV (RSV (A2), vero host cells) came out at 0.1 µg/mL. Also, the “active against all RSV strains tested (plaque assays)” value in the data set with RSV (all RSV strains tested) lay within 0.1 to 0.7 µg/mL.

Turning to “4,4'Bis-(4,6-bis-{3-[bis-(2-hydroxy-propyl)-sulfamoyl]-phenylamino}-[1,3,5]triazin-2-ylamino)biphenyl-2,2'-disulfonic acid, disodium salt [Example 40]”, the “Effect on cells @ µg/ml indicated HF” value in [1] is “N@75”. In addition, the “Antiviral IC50 µg/ml CMV /HF” value with CMV (Ad169) [3] came out at 4 µg/mL. In the data set with vero cells, the “Effect on cells @ µg/ml indicated Vero” value was “N@75”. In the data set on HSV1 (Patton) [2], the “Antiviral IC50 µg/ml HSV Vero” value turned out to be 20 µg/mL. For the same substance, the “Antiviral IC50 µg/ml RSV/ HF” value with RSV (A2) (Table 1a) came to 0.2 µg/mL.

As to “4,4'Bis[4,6-di[3-aminophenyl-N,N-bis(2-hydroxyethyl)sulfonylimino]-1,3,5-triazin-2-ylamino]-stilbene-2,2'-disulfonic acid, disodium salt [Example 5]”, the “IC50µG/mL IN PLAQUE ASSAY HSV/ VER O” value in the data set on HSV1 (Patton) [5] came out at 8 µg/mL. In addition, the “IC50 µG/mL IN GROWTH […]/ VERO” value in the data set on RSV (A2) was found to be 0.4 µg/mL.
